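A five-concentration, 48-hour dose response in 96-well plates underlies each endpoint, interpolated linearly between surrounding concentrations. Here, GI50 denotes the concentration required for 50% inhibition of growth.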 Active and inactive are the calls of the source. Cut-off read from the data, not from the text of the source: active = GI50 up to about 1.1 µM and inactive = higher.
How the values were obtained:
Assay in all cases: growth of human tumour cells (NCI), 48 h
786-0 = tested on: 786-0
A498 = tested on: A498
CAKI-1 = tested on: CAKI-1
CCRF-CEM = tested on: CCRF-CEM
DLD-1 = tested on: DLD-1
HCT-116 = tested on: HCT-116
HL-60 = tested on: HL-60
HOP-62 = tested on: HOP-62
Hs-578T = tested on: Hs-578T
K562 = tested on: K562
LOX IMVI = tested on: LOX IMVI
M14 = tested on: M14
MDA-MB-231 = tested on: MDA-MB-231
NCI-H460 = tested on: NCI-H460
NCI-H522 = tested on: NCI-H522
OVCAR-4 = tested on: OVCAR-4
OVCAR-8 = tested on: OVCAR-8
SK-MEL-28 = tested on: SK-MEL-28
SK-OV-3 = tested on: SK-OV-3
UO-31 = tested on: UO-31

Compound | GI50 (786-0) | GI50 (A498) | GI50 (CAKI-1) | GI50 (CCRF-CEM) | GI50 (DLD-1) | GI50 (HCT-116) | GI50 (HL-60) | GI50 (HOP-62) | GI50 (Hs-578T) | GI50 (K562) | GI50 (LOX IMVI) | GI50 (M14) | GI50 (MDA-MB-231) | GI50 (NCI-H460) | GI50 (NCI-H522) | GI50 (OVCAR-4) | GI50 (OVCAR-8) | GI50 (SK-MEL-28) | GI50 (SK-OV-3) | GI50 (UO-31)
Nc1ccc(S(=O)(=O)Nc2ccc(Nc3c4ccccc4nc4ccccc34)cc2)cc1 | 0.0413 µM (active) | 0.0538 µM (active) | < 0.0126 µM (active) | < 0.01 µM (active) | 1.06 µM (active) | 0.165 µM (active) | < 0.0102 µM (active) | < 0.0119 µM (active) | 1.86 µM (inactive) | 0.0716 µM (active) | 0.015 µM (active) | 0.0298 µM (active) | 2.08 µM (inactive) | 0.0347 µM (active) | 0.0695 µM (active) | 3.66 µM (inactive) | 0.041 µM (active) | 0.738 µM (active) | 0.0174 µM (active) | 0.195 µM (active)
O=c1c2ccccc2n2cnc3ccc(NCCNCCO)c1c32 | 0.889 µM (active) | 1.71 µM (inactive) | 2.43 µM (inactive) | 1.22 µM (inactive) | 2.59 µM (inactive) | 0.798 µM (active) | 2.42 µM (inactive) | 1.4 µM (inactive) | 2.37 µM (inactive) | 1.34 µM (inactive) | 1.11 µM (active) | 2.71 µM (inactive) | 2.31 µM (inactive) | 0.536 µM (active) | 1.49 µM (inactive) | 1.44 µM (inactive) | 0.855 µM (active) | 3.18 µM (inactive) | 2.99 µM (inactive) | 2.87 µM (inactive)
COc1ccc(CC(=O)NCCc2ccc(OC)c(OC)c2)cc1Br | > 100 µM (inactive) | > 100 µM (inactive) | > 100 µM (inactive) | > 100 µM (inactive) | > 100 µM (inactive) |  | > 100 µM (inactive) | > 100 µM (inactive) |  | > 100 µM (inactive) | > 100 µM (inactive) |  |  | > 100 µM (inactive) | > 100 µM (inactive) | > 100 µM (inactive) | > 100 µM (inactive) | > 100 µM (inactive) | > 100 µM (inactive) | > 100 µM (inactive)
CC1=C2CC[C@@]3(C)C(=CCC3O)C2(C)CCC1=O (stereo partly specified) | > 100 µM (inactive) | 91.6 µM (inactive) | > 100 µM (inactive) | > 100 µM (inactive) | > 100 µM (inactive) | > 100 µM (inactive) | > 100 µM (inactive) | > 100 µM (inactive) |  |  | > 100 µM (inactive) | > 100 µM (inactive) |  | > 100 µM (inactive) | > 100 µM (inactive) | > 100 µM (inactive) | > 100 µM (inactive) | > 100 µM (inactive) | > 100 µM (inactive) | > 100 µM (inactive)
COc1ccc(/C=C2\CCC(CN3CCOCC3)C2=O)cc1 (stereo unspecified) | 1.65 µM (inactive) | 9.44 µM (inactive) | 1.99 µM (inactive) | 1.38 µM (inactive) | 2.79 µM (inactive) | 1.8 µM (inactive) | 0.762 µM (active) | 10.5 µM (inactive) | 3.04 µM (inactive) | 1.03 µM (active) | 4.65 µM (inactive) | 2.16 µM (inactive) | 2.08 µM (inactive) | 17.8 µM (inactive) | 0.776 µM (active) | 5.96 µM (inactive) | 2.74 µM (inactive) | 3.06 µM (inactive) | 16.4 µM (inactive) | 8.45 µM (inactive)
CN(C)CCNC(=O)C1COc2cc(-c3cc(=O)c4ccccc4o3)ccc2O1 (stereo unspecified) | 18.1 µM (inactive) | 19 µM (inactive) | 17.1 µM (inactive) | 30.4 µM (inactive) | 27.3 µM (inactive) | 15.1 µM (inactive) | 23.9 µM (inactive) | 33 µM (inactive) |  | 36.7 µM (inactive) | 19.6 µM (inactive) | 18.1 µM (inactive) |  | 38.2 µM (inactive) | 16.6 µM (inactive) | 17.8 µM (inactive) | 23.6 µM (inactive) | 19.5 µM (inactive) | 23.1 µM (inactive) | 74.3 µM (inactive)
C=C1C(=O)OC2/C=C(CO)/C=C\C3OC3(C)CC(OC(=O)/C(C)=C/COC(C)=O)C12 (stereo unspecified) | 1.97 µM (inactive) | 7.43 µM (inactive) | 2.76 µM (inactive) | 1.26 µM (inactive) | 0.773 µM (active) | 1.5 µM (inactive) | 0.34 µM (active) | 20 µM (inactive) | 3.08 µM (inactive) | 3.3 µM (inactive) | 1.34 µM (inactive) | 2.3 µM (inactive) | 2.66 µM (inactive) | 5.69 µM (inactive) | 0.692 µM (active) | 3.99 µM (inactive) | 2.47 µM (inactive) | 1.73 µM (inactive) | 17.8 µM (inactive) | 6.11 µM (inactive)
